From patent publication US12139492B2 (Endotarget Inc., priority 2021, dated 2024)

Tests used:
[1] = target: BTK (Homo sapiens, UniProt Q06187); test: Degradation of BTK protein in Namalwa cells (Western blot; DC50, Dmax); settings: for DC50: read-out: DC50 (BTK degradation), concentration giving 50% reduction of BTK expression level, cell line not given; for Dmax: read-out: Dmax (BTK degradation)
[2] = system: Mino cells; test: Antiproliferative effect, MTS cell viability assay, Mino cells; format: cell-based; settings: Homo sapiens, MINO, Mino mantle cell lymphoma cells; read-out: IC50 (anti-proliferation) Mino cells
Method in brief: (§1)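 Mino and JeKo-1 mantle B-cell lymphoma lines were exposed to compound at 0, 0.001, 0.01, 0.1, 1 and 10 μM for 72 h. Viability was read by MTS reduction to formazan, measured as absorbance at 490 nm.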

[3] = system: JeKo-1 cells; test: Antiproliferative effect, MTS cell viability assay, JeKo-1 cells; format: cell-based; settings: Homo sapiens; JeKo-1 mantle cell lymphoma cells; read-out: IC50 (anti-proliferation) JeKO-1 cells
Method in brief: as §1

BTK, sequence (Q06187 whole entry): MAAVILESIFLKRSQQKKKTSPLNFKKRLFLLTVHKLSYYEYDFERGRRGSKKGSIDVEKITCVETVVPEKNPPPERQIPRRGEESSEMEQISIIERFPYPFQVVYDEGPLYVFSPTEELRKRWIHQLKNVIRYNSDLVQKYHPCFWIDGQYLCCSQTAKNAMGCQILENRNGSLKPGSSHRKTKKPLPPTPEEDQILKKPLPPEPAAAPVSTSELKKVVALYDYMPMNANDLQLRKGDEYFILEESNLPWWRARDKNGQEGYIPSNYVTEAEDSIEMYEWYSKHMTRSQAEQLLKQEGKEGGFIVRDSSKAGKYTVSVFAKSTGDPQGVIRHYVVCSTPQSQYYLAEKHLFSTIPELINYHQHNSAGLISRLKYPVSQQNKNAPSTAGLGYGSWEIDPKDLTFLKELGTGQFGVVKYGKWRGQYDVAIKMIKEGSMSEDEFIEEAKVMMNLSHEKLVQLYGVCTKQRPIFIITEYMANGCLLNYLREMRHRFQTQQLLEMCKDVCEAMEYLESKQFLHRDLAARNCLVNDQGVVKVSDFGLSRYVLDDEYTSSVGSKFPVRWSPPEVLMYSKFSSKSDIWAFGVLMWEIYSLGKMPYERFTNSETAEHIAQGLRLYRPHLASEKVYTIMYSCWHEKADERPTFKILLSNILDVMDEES

| Structure (SMILES) | DC50 [1] [nM] | Dmax [1] [%] | IC50 [2] [nM] | IC50 [3] [nM] |
| --- | --- | --- | --- | --- |
| NC(=O)c1c(-c2ccc(Oc3ccccc3)cc2)nn2c1NCC[C@H]2C1CCN(C2CCN(C(=O)N3CCC(CN4CCC(c5ccc6c(c5)CN(C5CCC(=O)NC5=O)C6=O)CC4)CC3)CC2)CC1 (stereo partly drawn) [Compound 396, (7S)-7-(1′-(4-((4-(2-(2,6-dioxopiperidin-3-yl)-1-oxoisoindolin-5-yl)piperidin-1-yl)methyl)piperidine-1-carbonyl)-[1,4′-bipiperidin]-4-yl)-2-(4-phenoxyphenyl)-4,5,6,7-tetrahydropyrazolo[1,5-a]pyrimidine-3-carboxamide] | 10 to 50 | > 75 | 1000 to 10000 | > 10000 |
| NC(=O)c1c(-c2ccc(Oc3ccccc3)cc2)nn2c1NCC[C@H]2C1CCN(CC2CCN(C(=O)N3CCN(c4ccc5c(c4)CN(C4CCC(=O)NC4=O)C5=O)CC3)CC2)CC1 (stereo partly drawn) [Compound 398, (7S)-7-(1-((1-(4-(2-(2,6-dioxopiperidin-3-yl)-1-oxoisoindolin-5-yl)piperazine-1-carbonyl)piperidin-4-yl)methyl)piperidin-4-yl)-2-(4-phenoxyphenyl)-4,5,6,7-tetrahydropyrazolo[1,5-a]pyrimidine-3-carboxamide] | > 50 | > 50 | > 10000 | > 10000 |
| NC(=O)c1c(-c2ccc(Oc3ccccc3)cc2)nn2c1NCC[C@H]2C1CCN(CC2CCN(C(=O)N3CCN(Cc4ccc5c(c4)C(=O)N(C4CCC(=O)NC4=O)C5=O)CC3)CC2)CC1 (stereo partly drawn) [Compound 399, (7S)-7-(1-((1-(4-((2-(2,6-dioxopiperidin-3-yl)-1,3-dioxoisoindolin-5-yl)methyl)piperazine-1-carbonyl)piperidin-4-yl)methyl)piperidin-4-yl)-2-(4-phenoxyphenyl)-4,5,6,7-tetrahydropyrazolo[1,5-a]pyrimidine-3-carboxamide] | > 50 | > 50 | 1000 to 10000 | > 10000 |
| NC(=O)c1c(-c2ccc(Oc3ccccc3)cc2)nn2c1NCC[C@H]2C1CCN(CC2CCN(C(=O)N3CCN(Cc4ccc5c(c4)CN(C4CCC(=O)NC4=O)C5=O)CC3)CC2)CC1 (stereo partly drawn) [Compound 400, (7S)-7-(1-((1-(4-((2-(2,6-dioxopiperidin-3-yl)-1-oxoisoindolin-5-yl)methyl)piperazine-1-carbonyl)piperidin-4-yl)methyl)piperidin-4-yl)-2-(4-phenoxyphenyl)-4,5,6,7-tetrahydropyrazolo[1,5-a]pyrimidine-3-carboxamide] | > 50 | > 50 | > 10000 | > 10000 |
| NC(=O)c1c(-c2ccc(Oc3ccccc3)cc2)nn2c1NCC[C@H]2C1CCN(CC2CCN(C(=O)N3CCN(C4CCN(c5ccc6c(c5)C(=O)N(C5CCC(=O)NC5=O)C6=O)CC4)CC3)CC2)CC1 (stereo partly drawn) [Compound 401] | 10 to 50 | > 90 | 1000 to 10000 | 1000 to 10000 |
| NC(=O)c1c(-c2ccc(Oc3ccccc3)cc2)nn2c1NCC[C@H]2C1CCN(CC2CCN(C(=O)N3CCN(C4CCN(c5ccc6c(c5)CN(C5CCC(=O)NC5=O)C6=O)CC4)CC3)CC2)CC1 (stereo partly drawn) [Compound 402, (7S)-7-(1-((1-(4-(1-(2-(2,6-dioxopiperidin-3-yl)-1-oxoisoindolin-5-yl)piperidin-4-yl)piperazine-1-carbonyl)piperidin-4-yl)methyl)piperidin-4-yl)-2-(4-phenoxyphenyl)-4,5,6,7-tetrahydropyrazolo[1,5-a]pyrimidine-3-carboxamide] | 10 to 50 | > 90 | < 1000 | 1000 to 10000 |
| NC(=O)c1c(-c2ccc(Oc3ccccc3)cc2)nn2c1NCC[C@H]2C1CCN(CC2CCN(C(=O)N3CCC(N4CCN(c5ccc6c(c5)C(=O)N(C5CCC(=O)NC5=O)C6=O)CC4)CC3)CC2)CC1 (stereo partly drawn) [Compound 403, (7S)-7-(1-((1-(4-(4-(2-(2,6-dioxopiperidin-3-yl)-1,3-dioxoisoindolin-5-yl)piperazin-1-yl)piperidine-1-carbonyl)piperidin-4-yl)methyl)piperidin-4-yl)-2-(4-phenoxyphenyl)-4,5,6,7-tetrahydropyrazolo[1,5-a]pyrimidine-3-carboxamide] | 10 to 50 | > 90 | < 1000 | < 1000 |
| NC(=O)c1c(-c2ccc(Oc3ccccc3)cc2)nn2c1NCC[C@H]2C1CCN(CC2CCN(C(=O)N3CCC(N4CCN(c5ccc6c(c5)CN(C5CCC(=O)NC5=O)C6=O)CC4)CC3)CC2)CC1 (stereo partly drawn) [Compound 404, (7S)-7-(1-((1-(4-(4-(2-(2,6-dioxopiperidin-3-yl)-1-oxoisoindolin-5-yl)piperazin-1-yl)piperidine-1-carbonyl)piperidin-4-yl)methyl)piperidin-4-yl)-2-(4-phenoxyphenyl)-4,5,6,7-tetrahydropyrazolo[1,5-a]pyrimidine-3-carboxamide] | < 10 | > 90 | < 1000 | < 1000 |
| NC(=O)c1c(-c2ccc(Oc3ccccc3)cc2)nn2c1NCC[C@H]2C1CCN(CC2CCN(C(=O)N3CCC(C4CCN(c5ccc6c(c5)C(=O)N(C5CCC(=O)NC5=O)C6=O)CC4)CC3)CC2)CC1 (stereo partly drawn) [Compound 405, (7S)-7-(1-((1-(1′-(2-(2,6-dioxopiperidin-3-yl)-1,3-dioxoisoindolin-5-yl)-[4,4′-bipiperidine]-1-carbonyl)piperidin-4-yl)methyl)piperidin-4-yl)-2-(4-phenoxyphenyl)-4,5,6,7-tetrahydropyrazolo[1,5-a]pyrimidine-3-carboxamide] | 10 to 50 | > 90 | < 1000 | 1000 to 10000 |
| NC(=O)c1c(-c2ccc(Oc3ccccc3)cc2)nn2c1NCC[C@H]2C1CCN(CC2CCN(C(=O)N3CCC(C4CCN(c5ccc6c(c5)CN(C5CCC(=O)NC5=O)C6=O)CC4)CC3)CC2)CC1 (stereo partly drawn) [Compound 406, (7S)-7-(1-((1-(1′-(2-(2,6-dioxopiperidin-3-yl)-1-oxoisoindolin-5-yl)-[4,4′-bipiperidine]-1-carbonyl)piperidin-4-yl)methyl)piperidin-4-yl)-2-(4-phenoxyphenyl)-4,5,6,7-tetrahydropyrazolo[1,5-a]pyrimidine-3-carboxamide] | < 10 | > 90 | < 1000 | 1000 to 10000 |
| NC(=O)c1c(-c2ccc(Oc3ccccc3)cc2)nn2c1NCC[C@H]2C1CCN(CC2CCN(C(=O)N3CCC(N4CCC(c5ccc6c(c5)C(=O)N(C5CCC(=O)NC5=O)C6=O)CC4)CC3)CC2)CC1 (stereo partly drawn) [Compound 407, (7S)-7-(1-((1-(4-(2-(2,6-dioxopiperidin-3-yl)-1,3-dioxoisoindolin-5-yl)-[1,4′-bipiperidine]-1′-carbonyl)piperidin-4-yl)methyl)piperidin-4-yl)-2-(4-phenoxyphenyl)-4,5,6,7-tetrahydropyrazolo[1,5-a]pyrimidine-3-carboxamide] | 10 to 50 | > 75 | 1000 to 10000 | > 10000 |
| NC(=O)c1c(-c2ccc(Oc3ccccc3)cc2)nn2c1NCC[C@H]2C1CCN(CC2CCN(C(=O)N3CCC(N4CCC(c5ccc6c(c5)CN(C5CCC(=O)NC5=O)C6=O)CC4)CC3)CC2)CC1 (stereo partly drawn) [Compound 408, (7S)-7-(1-((1-(4-(2-(2,6-dioxopiperidin-3-yl)-1-oxoisoindolin-5-yl)-[1,4′-bipiperidine]-1′-carbonyl)piperidin-4-yl)methyl)piperidin-4-yl)-2-(4-phenoxyphenyl)-4,5,6,7-tetrahydropyrazolo[1,5-a]pyrimidine-3-carboxamide] | 10 to 50 | > 75 | > 10000 | 1000 to 10000 |
